According to patent US6063587A, “Water-soluble tetrazolium salt compounds” (Dojindo Laboratories Co., Ltd., priority 1996, dated 2000):

Columns and labels:
[1] = Storage stability test (absorbance of aqueous buffer solution at 460 nm); assay type: physicochemical; conditions: 1 mM in 50 mM Tris buffer (pH 8.0), stored at 4° C. for 0, 1, 7, 14, 31 and 90 days
Method: 50 mM Tris buffer (pH 8.0) containing 1 mM of Compound a was stored at 4° C. for 0, 1, 7, 14, 31 and 90 days, and absorbances at 460 nm were measured. At the same time, the compound of the above general formula (2) described in Japanese Patent Unexamined Publication No.(Hei) 7-70092/1995 wherein both R^1 and R^2 are nitro groups (Compound b: see, the section of "Background Art") was stored in the same manner, and changes of absorbance were measured.

[2] = background statement; cited from earlier work

O=[N+]([O-])c1ccc(-n2nc(-c3ccc(S(=O)(=O)O)cc3S(=O)(=O)[O-])n[n+]2-c2ccc(I)cc2)c([N+](=O)[O-])c1 [Compound b]
changes of absorbance at 460 nm on storage [1]: remarkable increases of absorbance

COc1cc(-c2ccc(-n3nc(-c4ccccc4)n[n+]3-c3ccc([N+](=O)[O-])cc3)c(OC)c2)ccc1-n1nc(-c2ccccc2)n[n+]1-c1ccc([N+](=O)[O-])cc1 [nitro-TB, 3,3'-[3,3'-dimethoxy-(1,1'-biphenyl)-4,4'-diyl]-bis[2-(4-nitrophenyl)-5-phenyl]-2H-tetrazolium chloride]
water solubility of formazan compound [2]: low water solubility
